Source: ChEMBL document CHEMBL5625183, “Discovery of a novel dual-target inhibitor of CDK12 and PARP1 that induces synthetic lethality for treatment of triple-negative breast cancer” (Eur J Med Chem, 2023)
pIC50: −log10 of the molar value. “And” between values parts separate entries of the source, which are not always exact repeats. Equal values may be shown once. The source made the active and inactive calls. No cut-off for these calls is given here.

Assays:
[1] = target: T1, Cyclin-dependent kinase 12 (Homo sapiens, UniProt Q9NYV4); test: Inhibition of CDK12 (unknown origin) in presence of ATP by kinase-glo plus luminescent assay
Target sequence in this assay (Q9NYV4 whole entry): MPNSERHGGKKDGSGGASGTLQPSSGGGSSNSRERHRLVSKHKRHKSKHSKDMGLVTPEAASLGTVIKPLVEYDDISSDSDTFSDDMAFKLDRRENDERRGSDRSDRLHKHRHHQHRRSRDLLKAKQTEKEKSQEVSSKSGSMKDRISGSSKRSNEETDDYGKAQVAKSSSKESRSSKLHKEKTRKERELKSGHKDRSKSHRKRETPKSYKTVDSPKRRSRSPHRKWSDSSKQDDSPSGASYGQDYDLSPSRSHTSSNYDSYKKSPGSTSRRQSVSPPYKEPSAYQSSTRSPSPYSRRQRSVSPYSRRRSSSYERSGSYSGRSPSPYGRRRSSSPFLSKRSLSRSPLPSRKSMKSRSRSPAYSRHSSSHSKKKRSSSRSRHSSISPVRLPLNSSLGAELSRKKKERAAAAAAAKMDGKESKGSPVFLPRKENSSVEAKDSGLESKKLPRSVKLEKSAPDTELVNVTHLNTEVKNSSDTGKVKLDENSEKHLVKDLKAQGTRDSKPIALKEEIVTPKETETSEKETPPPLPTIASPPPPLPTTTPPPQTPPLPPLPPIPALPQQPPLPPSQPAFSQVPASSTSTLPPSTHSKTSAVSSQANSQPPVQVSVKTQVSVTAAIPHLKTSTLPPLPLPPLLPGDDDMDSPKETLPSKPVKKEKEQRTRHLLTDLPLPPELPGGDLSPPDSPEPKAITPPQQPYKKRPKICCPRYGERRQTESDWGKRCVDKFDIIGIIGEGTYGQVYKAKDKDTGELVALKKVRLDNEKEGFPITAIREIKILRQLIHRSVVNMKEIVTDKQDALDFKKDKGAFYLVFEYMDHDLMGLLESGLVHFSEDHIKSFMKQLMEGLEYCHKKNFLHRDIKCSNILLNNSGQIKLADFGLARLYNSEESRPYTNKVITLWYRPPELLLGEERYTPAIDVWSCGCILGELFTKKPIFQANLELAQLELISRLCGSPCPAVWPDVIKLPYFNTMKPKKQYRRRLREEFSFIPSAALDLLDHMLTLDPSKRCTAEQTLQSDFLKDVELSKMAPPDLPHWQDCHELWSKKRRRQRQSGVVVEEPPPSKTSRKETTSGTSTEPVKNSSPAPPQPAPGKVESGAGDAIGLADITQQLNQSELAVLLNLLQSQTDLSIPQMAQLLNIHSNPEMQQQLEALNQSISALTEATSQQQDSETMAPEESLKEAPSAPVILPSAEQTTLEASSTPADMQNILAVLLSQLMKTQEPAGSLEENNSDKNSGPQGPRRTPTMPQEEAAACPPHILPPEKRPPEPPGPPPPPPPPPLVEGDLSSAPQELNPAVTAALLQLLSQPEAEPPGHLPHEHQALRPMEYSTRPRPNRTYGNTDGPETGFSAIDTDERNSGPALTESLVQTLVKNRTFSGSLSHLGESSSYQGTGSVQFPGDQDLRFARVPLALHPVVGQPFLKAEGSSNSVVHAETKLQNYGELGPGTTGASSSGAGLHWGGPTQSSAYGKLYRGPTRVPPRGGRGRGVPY

[2] = target: Poly [ADP-ribose] polymerase 1 (Homo sapiens, UniProt P09874); test: Inhibition of PARP1 (unknown origin) incubated for 1 hr by ELISA analysis
[3] = target: T1, Cyclin-dependent kinase 12; test: Inhibition of CDK12 (unknown origin) at 1 uM in presence of ATP by kinase-glo plus luminescent assay relative to control
Target sequence in this assay (Q9NYV4 whole entry, looked up): as the sequence (Q9NYV4 whole entry) above

MDA-MB-468 [4] = test: Antiproliferative activity against human MDA-MB-468 cells assessed as inhibition of cell growth incubated for 24 hrs by MTT assay; assay type: functional, cell-based; settings: MDA-MB-468, 24 h
MDA-MB-436 [5] = test: Antiproliferative activity against human MDA-MB-436 cells assessed as inhibition of cell growth incubated for 24 hrs by MTT assay; assay type: functional, cell-based
MDA-MB-231 [6] = test: Antiproliferative activity against human MDA-MB-231 cells assessed as inhibition of cell growth incubated for 24 hrs by MTT assay; assay type: functional, cell-based; settings: MDA-MB-231, 24 h
[7] = target: Poly [ADP-ribose] polymerase 2 (Homo sapiens, UniProt Q9UGN5); test: Inhibition of PARP2 (unknown origin) incubated for 1 hr by ELISA analysis
MDA-MB-231 [8] = test: cells; settings: Homo sapiens, MDA-MB-231, 72 h
MDA-MB-468 [9] = test: Antiproliferative activity against human MDA-MB-468 cells assessed as inhibition of cell growth incubated for 48 hrs by MTT assay; assay type: functional, cell-based; settings: MDA-MB-468, 48 h
MDA-MB-436 [10] = test: Antiproliferative activity against human MDA-MB-436 cells assessed as inhibition of cell growth incubated for 72 hrs by MTT assay; assay type: functional, cell-based; settings: MDA-MB-436, 72 h
MDA-MB-231 [11] = test: Antiproliferative activity against human MDA-MB-231 cells assessed as inhibition of cell growth incubated for 48 hrs by MTT assay; assay type: functional, cell-based; settings: MDA-MB-231, 48 h
MDA-MB-468 [12] = test: Antiproliferative activity against human MDA-MB-468 cells assessed as inhibition of cell growth incubated for 72 hrs by MTT assay; assay type: functional, cell-based; settings: MDA-MB-468, 72 h
MDA-MB-436 [13] = test: Antiproliferative activity against human MDA-MB-436 cells assessed as inhibition of cell growth incubated for 48 hrs by MTT assay; assay type: functional, cell-based; settings: MDA-MB-436, 48 h
[14] = Metabolic stability in BALB/c mouse liver microsome assessed as half life in presence of NADPH incubated upto 60 mins by LC-MS/MS analysis; assay type: ADME; settings: liver microsomes
[15] = Metabolic stability in human liver microsome assessed as half life in presence of NADPH incubated upto 60 mins by LC-MS/MS analysis; assay type: ADME; settings: liver microsomes
[16] = Metabolic stability in human liver microsome assessed as intrinsic clearance in presence of NADPH incubated upto 60 mins by LC-MS/MS analysis; assay type: ADME; settings: liver microsomes, read-out: CLH
[17] = Metabolic stability in BALB/c mouse liver microsome assessed as intrinsic clearance in presence of NADPH incubated upto 60 mins by LC-MS/MS analysis; assay type: ADME; settings: liver microsomes, read-out: CLH
MDA-MB-231 [18] = test: Synergistic antiproliferative activity against human MDA-MB-231 cells in presence of Olaparib incubated for 24 hrs by MTT assay; assay type: functional, cell-based

Poly [ADP-ribose] polymerase 1, sequence (P09874 whole entry): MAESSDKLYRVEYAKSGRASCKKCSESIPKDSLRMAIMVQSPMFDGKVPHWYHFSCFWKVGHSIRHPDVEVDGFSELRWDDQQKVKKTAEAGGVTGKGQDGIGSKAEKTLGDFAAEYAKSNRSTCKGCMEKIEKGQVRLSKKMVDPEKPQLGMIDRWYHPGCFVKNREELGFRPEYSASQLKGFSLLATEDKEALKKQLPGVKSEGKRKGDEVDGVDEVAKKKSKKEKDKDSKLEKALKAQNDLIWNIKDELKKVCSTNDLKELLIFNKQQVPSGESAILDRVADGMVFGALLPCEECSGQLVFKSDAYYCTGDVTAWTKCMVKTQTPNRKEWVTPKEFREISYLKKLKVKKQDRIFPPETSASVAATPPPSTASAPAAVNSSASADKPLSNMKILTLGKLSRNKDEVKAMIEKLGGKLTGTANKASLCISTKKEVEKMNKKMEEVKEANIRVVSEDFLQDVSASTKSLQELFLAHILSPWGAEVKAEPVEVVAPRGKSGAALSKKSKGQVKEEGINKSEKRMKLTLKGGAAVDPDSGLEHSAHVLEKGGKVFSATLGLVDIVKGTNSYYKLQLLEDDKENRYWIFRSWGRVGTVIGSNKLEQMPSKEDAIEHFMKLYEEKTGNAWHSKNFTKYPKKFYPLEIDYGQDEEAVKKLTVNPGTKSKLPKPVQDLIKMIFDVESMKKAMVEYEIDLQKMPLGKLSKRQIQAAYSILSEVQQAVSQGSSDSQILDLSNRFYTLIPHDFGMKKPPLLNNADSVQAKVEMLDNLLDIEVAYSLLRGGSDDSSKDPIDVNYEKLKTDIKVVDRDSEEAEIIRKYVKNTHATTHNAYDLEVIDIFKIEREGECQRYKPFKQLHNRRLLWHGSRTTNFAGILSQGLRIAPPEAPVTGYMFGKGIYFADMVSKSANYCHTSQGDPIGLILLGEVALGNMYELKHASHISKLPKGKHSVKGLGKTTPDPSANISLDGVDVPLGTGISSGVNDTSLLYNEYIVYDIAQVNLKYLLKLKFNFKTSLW
Poly [ADP-ribose] polymerase 2, sequence (Q9UGN5 whole entry): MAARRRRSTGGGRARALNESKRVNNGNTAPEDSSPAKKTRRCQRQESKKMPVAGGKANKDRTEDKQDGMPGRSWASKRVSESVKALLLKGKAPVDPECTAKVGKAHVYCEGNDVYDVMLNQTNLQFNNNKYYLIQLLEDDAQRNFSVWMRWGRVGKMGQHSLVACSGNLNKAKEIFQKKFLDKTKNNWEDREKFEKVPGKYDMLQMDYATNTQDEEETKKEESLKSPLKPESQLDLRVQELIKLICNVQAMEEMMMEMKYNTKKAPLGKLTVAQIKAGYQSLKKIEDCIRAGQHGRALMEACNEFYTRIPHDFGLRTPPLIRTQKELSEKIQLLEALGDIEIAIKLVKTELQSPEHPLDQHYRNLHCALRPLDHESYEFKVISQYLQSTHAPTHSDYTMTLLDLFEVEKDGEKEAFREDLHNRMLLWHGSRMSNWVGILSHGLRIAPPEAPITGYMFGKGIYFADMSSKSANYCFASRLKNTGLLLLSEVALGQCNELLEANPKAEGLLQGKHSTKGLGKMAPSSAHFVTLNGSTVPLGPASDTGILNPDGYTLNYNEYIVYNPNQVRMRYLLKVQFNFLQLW

SMILES | pIC50 [1] | pIC50 [2] | inhibition [3] [%] | pIC50 (MDA-MB-468 [4]) | pIC50 (MDA-MB-436 [5]; Homo sapiens, MDA-MB-436, 24 h) | pIC50 (MDA-MB-231 [6]) | pIC50 [7] | pIC50 (MDA-MB-231 [8]) | pIC50 (MDA-MB-468 [9]) | pIC50 (MDA-MB-436 [10]) | pIC50 (MDA-MB-231 [11]) | pIC50 (MDA-MB-468 [12]) | pIC50 (MDA-MB-436 [13]) | half-life [14] [min] | half-life [15] [min] | CLint scaled [16] [L/h/kg] | CLint scaled [17] [L/h/kg] | Activity (MDA-MB-231 [18]) | pIC50 (MDA-MB-436 [5]; mda-mb-436)
NC(=O)c1cccc2[nH]c(NC(=O)c3cccc(C(=O)N4CCC(Nc5ncc(F)cn5)CC4)c3)nc12 | < 5.00 | 7.15 | 24.3 | < 4.52 | 4.54 | < 4.52 | 7.19 | – | – | – | – | – | – | – | – | – | – | – | –
NC(=O)c1cccc2[nH]c(NC(=O)c3cccc(C(=O)N4CCC(Nc5ncc(Br)cn5)CC4)c3)nc12 | 6.46 | 7.43 | 75.4 | 4.91 | 4.95 | 4.99 | 7.49 | – | – | – | – | – | – | – | – | – | – | – | –
O=C(c1cc(Cc2n[nH]c(=O)c3ccccc23)ccc1F)N1CCN(C(=O)C2CC2)CC1 [OLAPARIB] | – | – | 7 | 5.47 | 5.34 | 5.46 | – | 6.10 | 5.85 | 6.15 | 5.77 | 6.22 | 5.82 | – | – | – | – | – | –
O=C(c1ccc(F)cc1)C1CCN(CCn2c(=O)[nH]c3ccccc3c2=O)CC1 [KETANSERIN] | – | – | – | – | – | – | – | – | – | – | – | – | – | 29.4 | 33.6 | 2.86 | 11.1 | – | –
NC(=O)c1cccc2[nH]c(NC(=O)c3cccc(C(=O)N4CCC(Nc5ncc(Cl)cn5)CC4)c3)nc12 | 6.26 | 7.37 | 68.3 | 4.85 | 4.90 | 4.81 | 7.46 | – | – | – | – | – | – | – | – | – | – | – | –
NC(=O)c1cccc2[nH]c(NC(=O)c3cccc(C(=O)N4CCC(Nc5ncc(C(F)(F)F)cn5)CC4)c3)nc12 | 6.57 | 6.78 | 79.4 | 4.98 | 4.95 | 4.99 | 6.88 | – | – | – | – | – | – | – | – | – | – | – | –
CN(C)C/C=C/C(=O)Nc1ccc(C(=O)N2CCC[C@@H](Nc3ncc(Cl)c(-c4c[nH]c5ccccc45)n3)C2)cc1 | – | – | 98.6 | – | – | – | – | 5.15 | 4.84 | 5.19 | 4.75 | 5.24 | 4.74 | – | – | – | – | Active | 4.84 and 5.34
